# Experimental data reported in US4225619A, “Substituted fluoracylresorcinols” (Boehringer Ingelheim GmBH, priority 1976, dated 1980).
# Tests used:
# Assay type in all cases: cell-based
# Streptococcus Aronson [1] = experiment: Serial dilution test; details: Streptococcus, 18-20 hours at 37° C., read-out: MIC, S.D.T., Streptococcus Aronson
# Procedure: (§1) The inhibitory effect on bacteria and fungi was examined by the serial dilution test and the agar diffusion test (hole-test). As bacteria were used: Staphylococcus aureus SG 511, Streptococcus Aronson, Streptococcus pyogenes At CC 86 68; as fungi: Candida albicans AT CC 10231, Trichophyton mentagrophytes AT CC 9129 and Aspergillus niger.
# (§2) 2. Glucose broth: for Sc. Aronson and St. pyogenes Recipe see meat extract broth. After sterilization 1 weight percent of glucose is added as a sterile 50% solution.
# (§3) The age of the primary cultures is 24 hours for bacteria and 14 days for fungi. The standardization of the suspension of microorganisms is effected using a photometer according to Eppendorf (test tube .phi.14 mm, filter 546 nm) and a suspension for comparison consisting of barium sulfate, this suspension being created by adition of 3.0 ml of 1% barium chloride solution to 97 ml of 1% sulfuric acid. After the standardization the bacteria were further diluted to a concentration of 1:1000 by means of sodium chloride solution, the fungi were used in an undiluted state.
# (§4) 40 mgm of the substance were put into a 10 ml measuring flask and filled up to the mark with the solvent (corresponds to a dilution of 1:250=4000 μg/ml). The further dilution series was standardized with distilled water or the respective solvent and the following substance concentrations were prepared: 1000; 250; 62.5 μg/ml.
# (§5) The tubes were filled with 4.9 ml of the corresponding liquid nutrient medium. Then 0.1 ml of the substance dilution prepared above was added to each tube, so that the mentioned final concentrations were present. Finally each tube was inoculated with 0.1 ml of the standardized suspension of microorganisms. Control tests merely using the solvent are to be carried out simultaneously.
# (§6) Bacteria were incubated at 37° C. for 18-20 hours and fungi at 27° C. for 7 days.
# (§7) The measurement is carried out macroscopically defining the minimal inhibitory concentration (the lowest still microbiostatically effective concentration).
# Streptococcus Aronson [2] = experiment: Agar diffusion test (hole-test); details: 18-20 hours at 37° C., read-out: MIC, A.D.T., Streptococcus Aronson
# Procedure: as §1
# (§8) 2. Glucose agar: for Sc. Aronson and St. pyogenes Recipe see meat extract agar. After sterilization 1 weight percent of glucose is added as a sterile 50% solution.
# as §3, with “addition” for “adition”, “St. aureus SG 511 was” for “the bacteria were further”, “diluted” for “diluted to a concentration of”, “1:1000 and Sc. pyogenes and Aronson 1:100” for “1:1000”, “solution. The” for “solution, the”
# (§9) 40 mgm of the substance were put into a 10 ml measuring flask and filled up to the mark with the solvent (corresponds to a dilution of 1:250=4000 μg/ml).
# (§10) The dilutions to the concentrations under test were effected with distilled water or the respective solvent.
# (§11) 19 ml of the nutrient medium were filled into sterile Petri dishes of a diameter of 8 cm and dried. Subsequently the agar plates were charged with 4 ml of seed agar. 100 ml of seed agar contain 1.25 ml of the suspension of microorganisms, an agar plate thus containing 0.05 ml of the suspension of microorganisms. After solidification of the agar, 5 holes of a diameter of 5 mm were punched into the plates and filled with 0.05 ml of the correspondingly concentrated substance solution.
# (§12) Control tests merely using the solvent are to be carried out simultaneously.
# as §6
# (§13) The diameter of the area of inhibition in mm was measured after having deducted the diameter of the hole.
# [3] = test system: Staphylococcus aureus SG 511; experiment: Serial dilution test; details: Staphylococcus aureus, SG511, 18-20 hours at 37° C., read-out: MIC, S.D.T., Staphylococcus aureus SG 511
# Procedure: as §1
# 1. Meat extract broth: for St. aureus SG 511
# as §3, §4, §5, §6, §7
# [4] = test system: Candida albicans AT CC 10231; experiment: Serial dilution test; details: for MIC: Candida albicans, ATCC10231, 168 h, 27° C. for 7 days, read-out: MIC, S.D.T., Candida albicans
# Procedure: as §1
# (§14) 3. Sabouraud broth: for C. alb., Trich. mnt., A. niger
# as §3, §4, §5, §6, §7
# [5] = test system: Trichophyton mentagrophytes AT CC 9129; experiment: Serial dilution test; details: ATCC9129, 168 h, 27° C. for 7 days, read-out: MIC, S.D.T., Trichophyton mentagrophytes
# Procedure: as §1, §14, §3, §4, §5, §6, §7
# Aspergillus niger = experiment: Serial dilution test; details: for MIC: Aspergillus niger, 168 h, 27° C. for 7 days, read-out: MIC, S.D.T., Aspergillus niger
# Procedure: as §1, §14, §3, §4, §5, §6, §7
# Corynebacterium acnes = experiment: Serial dilution test for Corynebacterium acnes; details: for MIC: Cutibacterium acnes, 37° C. for 48 hours, read-out: MIC, S.D.T., Corynebacterium acnes
# Procedure: Serial dilution test for Corynebacterium acnes and Pityrosporum ovale Nutrient medium
# For Corynebacterium acnes: thioglycolate-broth for Pityrosporum ovale: Littmann's broth, 5 ml per tube.
# Suspension of microorganisms in 0.9% sodium chloride solution, standardized using a photometer according to Eppendorf by means of a suspension for comparison consisting of barium sulfate, for Corynebacterium acnes in a dilution of 1:100, for Pityrosporum ovale in an undiluted state. 0.1 ml of the suspensions was used per test tube. Dimethyl sulfoxide served as a solvent for the substances.
# The suspension with Corynebacteria acnes was incubated at 37° C. for 48 hours, the suspension of Pityrosporum ovale at 27° C. for 7 days. The reading was effected by macroscopic evaluation of the growth of microorganisms and registration of the minimal inhibitory concentration.
# [6] = test system: Streptococcus pyogenes At CC 86 68; experiment: Serial dilution test; details: Streptococcus pyogenes, ATCC8668, 18-20 hours at 37° C., read-out: MIC, S.D.T., Streptococcus pyogenes
# Procedure: as §1, §2, §3, §4, §5, §6, §7
# [7] = test system: Streptococcus pyogenes At CC 86 68; experiment: Agar diffusion test (hole-test); details: ATCC8668, 18-20 hours at 37° C., read-out: MIC, A.D.T., Streptococcus pyogenes
# Procedure: as §1, §8
# as §3, with “addition” for “adition”, “St. aureus SG 511 was” for “the bacteria were further”, “diluted” for “diluted to a concentration of”, “1:1000 and Sc. pyogenes and Aronson 1:100” for “1:1000”, “solution. The” for “solution, the”
# as §9, §10, §11, §12, §6, §13
# [8] = reduced growth at this concentration
Structure (SMILES),MIC (Streptococcus Aronson [1]) [µg/mL],MIC (Streptococcus Aronson [2]) [µg/mL],MIC [3] [µg/mL],MIC [4] [µg/mL],MIC [5] [µg/mL],MIC (Aspergillus niger) [µg/mL],MIC (Corynebacterium acnes) [µg/mL],MIC [6] [µg/mL],MIC [7] [µg/mL],"Concentration with reduced growth (value in brackets), S.D.T., Candida albicans [4, 8] [µg/mL]","Concentration with reduced growth (value in brackets), S.D.T., Aspergillus niger (Aspergillus niger; [8]) [µg/mL]","Concentration with reduced growth (value in brackets), S.D.T., Corynebacterium acnes (Corynebacterium acnes; [8]) [µg/mL]"
"CCc1cc(C(=O)C(F)(F)F)c(O)cc1O [B, 5-Ethyl-2,4-dihydroxy-trifluoroacetophenone, reference compound]",20,250,20,20,5,20,20,20,250,,,
"COc1ccc(C(=O)C(F)(F)F)c(OC)c1 [D, 2,4-Dimethoxy-trifluoroacetophenone, reference compound]",> 80,> 4000,> 80,> 80,> 80,> 80,> 80,> 80,> 4000,,,
"CC(C)Cc1c(O)ccc(C(=O)C(F)(F)F)c1O [F, 2,4-Dihydroxy-3-iso-butyl-trifluoroacetophenone]",1.25,≤ 15.6,0.08,20,1.25,20,0.31,1.25,≤ 15.6,,,
"CC(C)c1c(O)ccc(C(=O)C(F)(F)F)c1O [P, 2,4-Dihydroxy-3-isopropyl-trifluoroacetophenone]",1.25,≤ 15.6,1.25,,,,5,1.25,62.5,,,1.25

# Continued by falling MIC (Streptococcus Aronson [1]), values first:
MIC (Streptococcus Aronson [1]) [µg/mL],MIC (Streptococcus Aronson [2]) [µg/mL],MIC [3] [µg/mL],MIC [4] [µg/mL],MIC [5] [µg/mL],MIC (Aspergillus niger) [µg/mL],MIC (Corynebacterium acnes) [µg/mL],MIC [6] [µg/mL],MIC [7] [µg/mL],Structure (SMILES),"Concentration with reduced growth (value in brackets), S.D.T., Candida albicans [4, 8] [µg/mL]","Concentration with reduced growth (value in brackets), S.D.T., Aspergillus niger (Aspergillus niger; [8]) [µg/mL]","Concentration with reduced growth (value in brackets), S.D.T., Corynebacterium acnes (Corynebacterium acnes; [8]) [µg/mL]"
80,1000,80,80,20,20,80,,,"O=C(c1ccc(O)cc1O)C(F)(F)F [A, 2,4-Dihydroxy-trifluoroacetophenone, reference compound]",,,
5,62.5,5,20,1.25,5,1.25,1.25,62.5,"CCc1c(O)ccc(C(=O)C(F)(F)F)c1O [C, 3-Ethyl-2,4-dihydroxy-trifluoroacetophenone, reference compound]",,,
1.25,≤ 15.6,0.31,,1.25,,1.25,0.31,≤ 15.6,"CC1CCC(c2c(O)ccc(C(=O)C(F)(F)F)c2O)CC1 (centres unmarked) [H, 2,4-Dihydroxy-3-(4'-methyl)-cyclohexyl-trifluoro-acetophenone]",80,80,
